{"source": "patent US8071569B2", "about": "“Oxidized heparin fractions and their use in inhibiting angiogenesis” (priority 2002, dated 2011)", "key": {"[1]": {"tested_on": "chick chorioallantoic membrane (CAM)", "assay": "FGF2-induced neovascularization on the chick chorioallantoic membrane (CAM)", "format": "in vivo", "conditions": "FGF2 alone (filter disk, 1 μg/mL)", "protocol": "In vivo neovascularization was examined by the method previously described by Auerbach et al. (Auerbach et al., J. Dev. Biol., 41:391-394 (1974), which is hereby incorporated by reference in its entirety). Ten-day old embryos were purchased from Spafas, Inc. (Preston, Conn.) and were incubated at 37° C. with 55% relative humidity. In the dark with the help of a candling lamp, a small hole was punctured in the shell concealing the air sac with a hypodermic needle. A second hole was punctured in the shell on the broadside of the egg directly over an avascular portion of the embryonic membrane, as observed during candling. A false air sac was created beneath the second hole by the application of negative pressure to the first hole, which caused the chorioallantoic membrane (CAM) to separate from the shell. […]\nCAM tissue directly beneath FGF2-saturated filter disk was resected from embryos treated 48 hours prior with test compound or control. […] Digital images of CAM sections adjacent to filters were collected using a 3-CCD color video camera system (Toshiba America, New York, N.Y.) and analyzed using Image-Pro Plus software (Media Cybernetics, Silver Spring, Md.). Table 4 contains the number of vessel branch points contained in a circular region equal to the area of a filter disk counted for each section."}, "[2]": {"tested_on": "Human umbilical vein endothelial cells (HUVEC)", "assay": "Inhibition of FGF2-stimulated endothelial cell tube formation on Matrigel", "format": "cell-based", "conditions": "FGF2 alone 100 ng/ml, overnight", "protocol": "Differentiation by endothelial cells was examined using a method developed by Grant et al. (Grant et al., In Vitro Cell Dev. Biol., 27A:327-336 (1991), which is hereby incorporated by reference in its entirety). Matrigel® matrix, phenol-red free (commercially available from Becton Dickinson, Bedford, Mass.) was thawed overnight at 4° C. Using cold pipette tips, 3.0 mg/well of Matrigel® matrix was placed in a cold twenty-four-multiwell plate (Falcon). Matrigel® matrix was allowed to polymerize during incubation at 37° C. for 30 minutes.\nHuman umbilical vein endothelial cells (HUVEC) were maintained at 37° C. with 5% CO2 and 95% humidity in endothelial cell growth medium with 2% fetal bovine serum (EGM). […]\nSubsequently, the medium was aspirated and cells were fixed and stained using a modified HEMA-3 stain kit. Digital images of micro-titer well sections were collected using a DKC5000 3-CCD color video camera system (Toshiba America, New York, N.Y.) and analyzed using Image-Pro Plus software (Media Cybernetics, Silver Spring, Md.). The area and major axis length of stained cells having a tubular morphology was measured on the Matrigel® matrix surface (Becton Dickinson, Bedford, Pa.) counted from 5 images/well."}, "[3]": {"tested_on": "Colon tumor", "assay": "CAM tumor implant model, colon tumor", "format": "in vivo, chick", "conditions": "0.01 mg single dose over 7 days, initial implant 45 ± 5 mg, n = 8", "protocol": "Ten million tumor cells were placed on the surface of each CAM and were cultured for one week. The resulting tumors were excised and cut into 50 mg fragments. These fragments were placed on additional CAMs and treated topically or systemically by intravenous injection the following day with the test agents. […] Each treatment group incorporated at least ten tumors per experiment. Tumors were then excised from the egg and tumor weights were determined for each tumor."}}, "data": [{"substance": "FGF2: recombinant human fibroblast growth factor basic, angiogenic stimulus", "values": [{"measurement": "Average # of Branch Points", "setting": "[1]", "value": "264 + 18"}, {"measurement": "Cell Tube Formation (area, mm^2)", "setting": "[2]", "value": "2.50 ± 0.28", "unit": "mm^2"}, {"measurement": "Cell Tube Formation (length, mm)", "setting": "[2]", "value": "79.83 ± 8.66", "unit": "mm"}]}, {"substance": "r-TFPI: r-tissue factor pathway inhibitor", "values": [{"measurement": "Mean tumor weight (mg) ± SEM", "setting": "[3]", "value": "38 ± 8", "unit": "mg"}]}]}
